# Reference: PubChem BioAssay AID248 (DTP/NCI, 2004)
# Several values for one entry are separate records, joined by “and”; a condition that tells them apart may be missing. Identical values can stand only once. Inconclusive results and toxic doses are left out.
# System: L1210 leukemia ip in BDF1 mice, survival T/C
# Experiment: NCI In Vivo Anticancer Drug Screen. Data for tumor model L1210 Leukemia (intraperitoneal) in B6D2F1 (BDF1) mice
# Conditions: endpoint: mean survival time, higher = longer survival
# Summary of the method: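 In this screen, tumor-bearing mice given compound are compared to those given vehicle, and their survival values are reported as a treated-to-control quotient.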
# [1] = dose: 200.0 mg/kg/injection, schedule: Q01DX001 (ip), vehicle: carboxymethylcellulose (CMC)
# [2] = dose: 100.0 mg/kg/injection, schedule: Q04DX003 (ip), vehicle: saline with Tween-80
# [3] = dose: 200.0 mg/kg/injection, schedule: Q04DX003 (ip), vehicle: saline with Tween-80
# [4] = dose: 400.0 mg/kg/injection, schedule: Q04DX003 (ip), vehicle: saline with Tween-80
smiles,measurement,setting,value
S=C(N=Nc1ccccc1)NNc1ccccc1,T/C,"dose: 18.8 mg/kg/injection, schedule: Q04DX003 (ip), vehicle: saline with Tween-80",90 % of control
same,T/C,"dose: 18.9 mg/kg/injection, schedule: Q01DX009 (ip), vehicle: saline with Tween-80",87 % of control
same,T/C,"dose: 30.0 mg/kg/injection, schedule: Q01DX Z (ip), vehicle: carboxymethylcellulose (CMC)",92 % of control
same,T/C,"dose: 37.5 mg/kg/injection, schedule: Q01DX009 (ip), vehicle: saline with Tween-80",92 % of control
same,T/C,"dose: 37.5 mg/kg/injection, schedule: Q01DX Z (ip), vehicle: carboxymethylcellulose (CMC)",97 % of control
same,T/C,"dose: 37.5 mg/kg/injection, schedule: Q04DX003 (ip), vehicle: saline with Tween-80",87 % of control
same,T/C,"dose: 45.0 mg/kg/injection, schedule: Q01DX Z (ip), vehicle: carboxymethylcellulose (CMC)",97 % of control
same,T/C,"dose: 75.0 mg/kg/injection, schedule: Q01DX009 (ip), vehicle: saline with Tween-80",90 % of control
same,T/C,"dose: 75.0 mg/kg/injection, schedule: Q01DX Z (ip), vehicle: carboxymethylcellulose (CMC)",92 % of control
same,T/C,"dose: 75.0 mg/kg/injection, schedule: Q04DX003 (ip), vehicle: saline with Tween-80",92 % of control
same,T/C,"dose: 150.0 mg/kg/injection, schedule: Q04DX003 (ip), vehicle: saline with Tween-80",88 % of control
same,T/C,[1],101 % of control
O=C(NCc1ccccc1)Nc1ccccc1F,T/C,"dose: 100.0 mg/kg/injection, schedule: Q01DX009 (ip), vehicle: Klucel (hydroxypropylcellulose) (HPC)",110 % of control
same,T/C,"dose: 200.0 mg/kg/injection, schedule: Q01DX009 (ip), vehicle: Klucel (hydroxypropylcellulose) (HPC)",110 % of control
same,T/C,"dose: 400.0 mg/kg/injection, schedule: Q01DX009 (ip), vehicle: Klucel (hydroxypropylcellulose) (HPC)",104 % of control
COc1ccc(/C2=C/CCCCCC2)cc1,T/C,"dose: 50.0 mg/kg/injection, schedule: Q01DX009 (ip), vehicle: acetone",87 % of control
same,T/C,"dose: 100.0 mg/kg/injection, schedule: Q01DX009 (ip), vehicle: acetone",92 % of control
same,T/C,"dose: 100.0 mg/kg/injection, schedule: Q04DX003 (ip), vehicle: acetone",96 % of control
same,T/C,"dose: 200.0 mg/kg/injection, schedule: Q01DX009 (ip), vehicle: acetone",95 % of control
same,T/C,"dose: 200.0 mg/kg/injection, schedule: Q04DX003 (ip), vehicle: acetone",103 % of control
same,T/C,"dose: 400.0 mg/kg/injection, schedule: Q04DX003 (ip), vehicle: acetone",101 % of control
C[n+]1c(-c2ccc(Cl)cc2Cl)c2cc([N+](=O)[O-])ccc2c2ccccc21,T/C,"dose: 12.5 mg/kg/injection, schedule: Q01DX009 (ip), vehicle: water",113 % of control
same,T/C,"dose: 25.0 mg/kg/injection, schedule: Q01DX009 (ip), vehicle: water",113 % of control
same,T/C,"dose: 25.0 mg/kg/injection, schedule: Q04DX003 (ip), vehicle: water",108 % of control
same,T/C,"dose: 50.0 mg/kg/injection, schedule: Q01DX009 (ip), vehicle: water",101 % of control
same,T/C,"dose: 100.0 mg/kg/injection, schedule: Q04DX003 (ip), vehicle: water",95 % of control
CNC(=N)c1ccc(NC(=N)c2ccc(NC(=N)c3ccc(NC(=O)Nc4ccc(C(=N)Nc5ccc(C(=N)Nc6ccc(C(=N)NC)cc6)cc5)cc4)cc3)cc2)cc1,T/C,"dose: 6.25 mg/kg/injection, schedule: Q01DX001 (ip), vehicle: water",112 % of control
same,T/C,"dose: 12.5 mg/kg/injection, schedule: Q01DX001 (ip), vehicle: water",108 % of control
same,T/C,"dose: 16.0 mg/kg/injection, schedule: Q01DX015 (ip), vehicle: water",157 % of control
same,T/C,"dose: 25.0 mg/kg/injection, schedule: Q01DX001 (ip), vehicle: water",112 % of control
same,T/C,"dose: 31.0 mg/kg/injection, schedule: Q01DX015 (ip), vehicle: water",214 % of control
Cc1ccc(S(=O)(=O)OCCOS(=O)(=O)c2ccc(C)cc2)cc1,T/C,"dose: 100.0 mg/kg/injection, schedule: Q04DX003 (ip), vehicle: Klucel (hydroxypropylcellulose) (HPC)",90 % of control
same,T/C,"dose: 200.0 mg/kg/injection, schedule: Q04DX003 (ip), vehicle: Klucel (hydroxypropylcellulose) (HPC)",87 % of control
NC(=O)CC[n+]1cccc(C(=O)O)c1,T/C,"dose: 100.0 mg/kg/injection, schedule: Q01DX009 (ip), vehicle: saline",93 % of control
same,T/C,"dose: 100.0 mg/kg/injection, schedule: Q04DX003 (ip), vehicle: saline",94 % of control
same,T/C,"dose: 200.0 mg/kg/injection, schedule: Q01DX009 (ip), vehicle: saline",88 % of control
same,T/C,"dose: 200.0 mg/kg/injection, schedule: Q04DX003 (ip), vehicle: saline",93 % of control
same,T/C,"dose: 400.0 mg/kg/injection, schedule: Q01DX009 (ip), vehicle: saline",92 % of control
same,T/C,"dose: 400.0 mg/kg/injection, schedule: Q04DX003 (ip), vehicle: saline",94 % of control
O=C1NC(c2ccccc2)C(=O)NC1c1ccccc1 (centres undefined),T/C,[2],94 % of control
same,T/C,[3],86 % of control
same,T/C,[4],89 % of control
O=C1CCCCC1Nc1ccc(Cl)cc1 (centres undefined),T/C,"dose: 100.0 mg/kg/injection, schedule: Q01DX001 (ip), vehicle: carboxymethylcellulose (CMC)",100 % of control
same,T/C,[1],95 % of control
same,T/C,"dose: 400.0 mg/kg/injection, schedule: Q01DX001 (ip), vehicle: carboxymethylcellulose (CMC)",95 % of control
S=c1c2[nH]cnc2ncn1C1CCCC1,T/C,"dose: 5.0 mg/kg/injection, schedule: Q01DX001 (ip), vehicle: other",100 % of control
same,T/C,"dose: 10.0 mg/kg/injection, schedule: Q01DX001 (ip), vehicle: other",106 % of control
same,T/C,"dose: 15.0 mg/kg/injection, schedule: Q01DX009 (ip), vehicle: saline with Tween-80",119 % of control
same,T/C,"dose: 20.0 mg/kg/injection, schedule: Q01DX001 (ip), vehicle: other",103 % of control
same,T/C,"dose: 33.5 mg/kg/injection, schedule: Q01DX009 (ip), vehicle: saline with Tween-80",104 % of control
CCCCNS(=O)(=O)c1ccc(NC(=O)c2ccc3ccccc3c2O)c([N+](=O)[O-])c1,T/C,[2],90 % of control
same,T/C,[3],88 % of control
same,T/C,[4],88 % of control
C[N+](C)(C)c1ccc(N2C(=O)C3C4c5ccccc5C(C3C2=O)[n+]2ccccc24)cc1 (centres undefined),T/C,"dose: 1.56 mg/kg/injection, schedule: Q01DX009 (ip), vehicle: Klucel (hydroxypropylcellulose) (HPC)",103 % of control
same,T/C,"dose: 3.12 mg/kg/injection, schedule: Q01DX009 (ip), vehicle: Klucel (hydroxypropylcellulose) (HPC)",97 % of control
same,T/C,"dose: 6.25 mg/kg/injection, schedule: Q01DX009 (ip), vehicle: Klucel (hydroxypropylcellulose) (HPC)",100 % of control
same,T/C,"dose: 12.5 mg/kg/injection, schedule: Q04DX003 (ip), vehicle: saline",101 % of control
same,T/C,"dose: 25.0 mg/kg/injection, schedule: Q04DX003 (ip), vehicle: saline",94 % of control
CS\C(N)=N/N=C/C(C)=N/N=C(/N)SC,T/C,"dose: 15.0 mg/kg/injection, schedule: Q01DX Z (ip), vehicle: saline",98 % of control
same,T/C,"dose: 30.0 mg/kg/injection, schedule: Q01DX Z (ip), vehicle: saline",100 % of control
same,T/C,"dose: 60.0 mg/kg/injection, schedule: Q01DX Z (ip), vehicle: saline",100 % of control and 105 % of control
same,T/C,"dose: 120.0 mg/kg/injection, schedule: Q01DX Z (ip), vehicle: saline",100 % of control and 105 % of control
same,T/C,"dose: 240.0 mg/kg/injection, schedule: Q01DX Z (ip), vehicle: saline",100 % of control
same,T/C,"dose: 480.0 mg/kg/injection, schedule: Q01DX Z (ip), vehicle: saline",105 % of control
